Measured values reported in patent US9695151B2, “3,4-dihydro-2H-isoquinoline-1-one and 2,3-dihydro-isoindol-1-one compounds” (Hoffmann-La Roche Inc., priority 2013, dated 2017).

Tests used:
[1] = system: rats with experimental heart failure; details: rat, in vivo; cited from earlier work
[2] = system: rat model of chronic kidney disease; details: cited from earlier work; for cardiac and aortic medial hypertrophy / renal effects (albuminuria, azotemia, renovascular hypertrophy, glomerular injury, PAI-1 and osteopontin mRNA, tubulointerstitial fibrosis): angiotensin II and high salt treatment; for angiotensin II and salt-stimulated PAI-1 mRNA expression: aorta and heart
CYP11B2 [3] = biological target: T1, CYP11B2 (Homo sapiens (Human), UniProt P19099); test: G-402 cellular enzyme assay, human CYP11B2 (aldosterone release); assay type: cell-based; details: G-402 cells, 1 μM Deoxycorticosterone
T1 sequence (P19099 25-503): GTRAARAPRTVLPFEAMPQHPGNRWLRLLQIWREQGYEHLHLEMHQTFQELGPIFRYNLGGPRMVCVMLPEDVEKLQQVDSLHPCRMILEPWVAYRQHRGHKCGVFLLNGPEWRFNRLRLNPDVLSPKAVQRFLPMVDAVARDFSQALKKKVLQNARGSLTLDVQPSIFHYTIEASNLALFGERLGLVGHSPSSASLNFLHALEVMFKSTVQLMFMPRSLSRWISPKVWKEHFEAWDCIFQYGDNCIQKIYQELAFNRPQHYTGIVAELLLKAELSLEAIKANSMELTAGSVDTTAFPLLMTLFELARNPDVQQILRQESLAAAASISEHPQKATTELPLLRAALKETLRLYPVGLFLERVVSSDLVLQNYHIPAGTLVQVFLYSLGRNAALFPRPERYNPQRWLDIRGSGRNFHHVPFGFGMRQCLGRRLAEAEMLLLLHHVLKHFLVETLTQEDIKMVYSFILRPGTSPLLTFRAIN
Description: (§1) Herein we identified the use of the G-402 cell line as a host cell to ectopically express (transiently or stably) enzymes of the CYP11 family. Specifically we developed stable G-402 cells expressing ectopically human CYP11B1, human CYP11B2, human CYP11A1, cynmolgus CYP11B1 or cynomolgus CYP11B2 enzyme activity. Importantly the identified cell line G-402 expresses co-factors (adrenodoxin and adrenodoxin reductase) important for the activity of the CYP11 family and no relevant enzyme activity of the CYP11 family (in comparison to H295R cells) was detected in these cells. Therefore the G-402 cell line is uniquely suited as a host cell for the ectopic expression of enzymes from the CYP11 family.
(§2) G-402 cells can be obtained from ATCC (CRL-1440) and were originally derived from a renal leiomyoblastoma.
(§3) The expression plasmids contains the ORF for either human/cyno CYP11B1 or CYP11B2 under the control of a suitable promoter (CMV-promoter) and a suitable resistance marker (neomycin). Using standard techniques the expression plasmid is transfected into G-402 cells and these cells are then selected for expressing the given resistance markers. Individual cell-clones are then selected and assessed for displaying the desired enzymatic activity using 11-Deoxycorticosterone (Cyp11B2) or 11-Deoxycortisol (Cyp11B1) as a substrate.
(§4) G-402 cells expressing CYP11 constructs were established as described above and maintained in McCoy's 5a Medium Modified, ATCC Catalog No. 30-2007 containing 10% FCS and 400 μg/ml G418 (Geneticin) at 37° C. under an atmosphere of 5% CO2/95% air. Cellular enzyme assays were performed in DMEM/F12 medium containing 2.5% charcoal treated FCS and appropriate concentration of substrate (0.3-10 uM 11-Deoxycorticosterone, 11-Deoxycortisol or Corticosterone). For assaying enzymatic activity, cells were plated onto 96 well plates and incubated for 16 h. An aliquot of the supernatant is then transferred and analyzed for the concentration of the expected product (Aldosterone for CYP11B2; Cortisol for CYP11B1). The concentrations of these steroids can be determined using HTRF assays from CisBio analyzing either Aldosterone or Cortisol.
(§5) Inhibition of the release of produced steroids can be used as a measure of the respective enzyme inhibition by test compounds added during the cellular enzyme assay. The dose dependent inhibition of enzymatic activity by a compound is calculated by means of plotting added inhibitor concentrations (x-axes) vs. measured steroid/product level (y-axes). The inhibition is then calculated by fitting the following 4-parameter sigmoidal function (Morgan-Mercer-Flodin (MMF) model) to the raw data points using the least squares method:
(§6) [formula] wherein, A is the maximum y value, B is the EC50 factor determined using XLFit, C is the minimum y value and D is the slope value.
(§7) EC50 values for compounds claimed herein were tested with the G402-based assay system described. Cyp11B2 enzyme activity was tested in presence of 1 μM Deoxycorticosterone and variable amounts of inhibitors; Cyp11B1 enzyme activity was tested in presence of 1 μM Deoxycortisol and variable amounts of inhibitors.

human CYP11B1 = human CYP11B1 (Homo sapiens (Human), UniProt P15538); test: G-402 cellular enzyme assay, human CYP11B1 (cortisol release); assay type: cell-based; details: G-402 cells, 1 μM Deoxycortisol
human CYP11B1, sequence (P15538 25-503): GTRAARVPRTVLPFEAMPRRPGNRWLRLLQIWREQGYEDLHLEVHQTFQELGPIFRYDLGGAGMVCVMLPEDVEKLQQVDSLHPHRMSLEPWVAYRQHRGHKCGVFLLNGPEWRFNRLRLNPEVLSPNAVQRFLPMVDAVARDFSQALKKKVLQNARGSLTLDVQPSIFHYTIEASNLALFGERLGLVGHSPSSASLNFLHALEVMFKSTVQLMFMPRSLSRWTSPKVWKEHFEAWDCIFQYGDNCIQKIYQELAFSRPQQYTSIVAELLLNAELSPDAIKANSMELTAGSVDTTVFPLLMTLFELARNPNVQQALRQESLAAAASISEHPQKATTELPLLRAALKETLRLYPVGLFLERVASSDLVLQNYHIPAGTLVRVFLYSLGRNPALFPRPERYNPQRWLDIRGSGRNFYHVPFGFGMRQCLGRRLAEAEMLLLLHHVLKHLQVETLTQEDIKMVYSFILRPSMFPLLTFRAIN
Description: as §1, §2, §3, §4, §5, §6, §7

CYP11B2 [4] = biological target: T1, CYP11B2; details: patients with primary aldosteronism, oral; cited from earlier work

| EC50 (CYP11B2 [3]) [nM] | EC50 (human CYP11B1) [nM] | Compound | further results |
| --- | --- | --- | --- |
| 61 | 15400 | CCS(=O)(=O)N1CC(Nc2cncc(N3CCc4cc(Cl)ccc4C3=O)c2)C1 [Example 30, 6-Chloro-2-[5-[(1-ethylsulfonylazetidin-3-yl)amino]pyridin-3-yl]-3,4-dihydroisoquinolin-1-one] | – |
| 954 | > 30000 | CCC(=O)N1CC(Nc2cncc(N3Cc4cc(Cl)ccc4C3=O)c2)C1 [Example 28, 5-Chloro-2-[5-[(1-propanoylazetidin-3-yl)amino]pyridin-3-yl]-3H-isoindol-1-one] | – |
| 178 | 23700 | CCC(=O)N1CC(Nc2cncc(N3CCc4cc(Cl)ccc4C3=O)c2)C1 [Example 29, 6-Chloro-2-[5-[(1-propanoylazetidin-3-yl)amino]pyridin-3-yl]-3,4-dihydroisoquinolin-1-one] | – |
| 65 | > 30000 | CCC(=O)N1CC(Nc2cncc(N3C(=O)c4ccc(Cl)cc4C3C)c2)C1 (centres unmarked) [Example 33, 5-Chloro-3-methyl-2-[5-[(1-propanoylazetidin-3-yl)amino]pyridin-3-yl]-3H-isoindol-1-one] | – |
| 0.8 | 0.4 | CCS(=O)(=O)N1CCC(N(C)c2cncc(N3C(=O)c4ccc(Cl)cc4C3(C)C)c2)CC1 [Example 20, 5-Chloro-2-[5-[(1-ethylsulfonylpiperidin-4-yl)-methylamino]pyridin-3-yl]-3,3-dimethylisoindol-1-one] | – |
| 0.5 | 117 | CC(C)S(=O)(=O)N1CCC(N(C)c2cncc(N3C(=O)c4ccc(Cl)cc4C3(C)C)c2)C1 (single isomer, unassigned) [Example 16, 5-Chloro-3,3-dimethyl-2-[5-[methyl-[(3R or 3S)-1-propan-2-ylsulfonylpyrrolidin-3-yl]amino]pyridin-3-yl]isoindol-1-one] | – |
| 13 | 4570 | CCS(=O)(=O)N1CCC(Nc2cncc(N3C(=O)c4ccc(C#N)cc4C3(C)C)c2)CC1 [Example 43, 2-[5-[(1-Ethylsulfonyl-4-piperidyl)amino]-3-pyridyl]-3,3-dimethyl-1-oxo-isoindoline-5-carbonitrile] | – |
| 1510 | > 30000 | CC(C)S(=O)(=O)N1CCCC(Nc2cncc(N3C(=O)c4ccc(Cl)cc4C3(C)C)c2)C1 (single isomer, unassigned) [Example 27, 5-Chloro-3,3-dimethyl-2-[5-[[(3S or 3R)-1-propan-2-ylsulfonylpiperidin-3-yl]amino]pyridin-3-yl]isoindol-1-one] | – |

The remaining lines, values behind:

| Compound | EC50 (CYP11B2 [3]) [nM] | EC50 (human CYP11B1) [nM] | further results |
| --- | --- | --- | --- |
| N#Cc1ccc([C@H]2CCCc3cncn32)cc1 [FAD286] | – | – | blood pressure and cardiovascular function and structure [1]: improved; kidney function and morphology [1]: improve; cardiac and aortic medial hypertrophy [2]: attenuated; renal effects (albuminuria, azotemia, renovascular hypertrophy, glomerular injury, PAI-1 and osteopontin mRNA, tubulointerstitial fibrosis) [2]: prevented; angiotensin II and salt-stimulated PAI-1 mRNA expression [2]: not; plasma aldosterone ([2]; following 4 weeks of treatment): reduced |
| CCC(=O)N1CC(Nc2cncc(N3C(=O)c4ccc(Cl)cc4C3(C)C)c2)C1 [Example 9, 5-Chloro-3,3-dimethyl-2-[5-[(1-propanoylazetidin-3-yl)amino]pyridin-3-yl]isoindol-1-one] | 10 | 2560 | – |
| N#Cc1ccc([C@H]2CCc3cncn32)c(F)c1 [LCI699] | – | – | blood pressure (CYP11B2 [4]): mildly decreased; circulating aldosterone levels (CYP11B2 [4]): significantly lower; hypokalemia (CYP11B2 [4]): corrected; selectivity (effects on the glucocorticoid axis) (CYP11B2 [4]): poor selectivity |
| CCC(=O)N1CC(N(C)c2cncc(N3C(=O)c4ccc(Cl)cc4C3(C)C)c2)C1 [Example 12, 5-Chloro-3,3-dimethyl-2-[5-[methyl-(1-propanoylazetidin-3-yl)amino]pyridin-3-yl]isoindol-1-one] | 2 | 86 | – |
| CC1(C)c2cc(Cl)ccc2C(=O)N1c1cncc(NC2CCCN(S(C)(=O)=O)C2)c1 (single isomer, unassigned) [Example 22, 5-Chloro-3,3-dimethyl-2-[5-[[(3R or 3S)-1-methylsulfonylpiperidin-3-yl]amino]pyridin-3-yl]isoindol-1-one] | 149 | 27200 | – |
| CC(C)S(=O)(=O)N1CC(Nc2cncc(N3CCc4cc(Cl)ccc4C3=O)c2)C1 [Example 31, 6-Chloro-2-[5-[(1-propan-2-ylsulfonylazetidin-3-yl)amino]pyridin-3-yl]-3,4-dihydroisoquinolin-1-one] | 34 | 3840 | – |
| CC(=O)N1CC(Nc2cncc(N3C(=O)c4ccc(Cl)cc4C3(C)C)c2)C1 [Example 1, 2-[5-[(1-Acetylazetidin-3-yl)amino]pyridin-3-yl]-5-chloro-3,3-dimethylisoindol-1-one] | 38 | 5840 | – |
| CC(=O)S[C@@H]1CC2=CC(=O)CC[C@]2(C)[C@H]2CC[C@@]3(C)[C@@H](CC[C@@]34CCC(=O)O4)[C@H]12 [spironolactone] | – | – | cardiac and aortic medial hypertrophy [2]: attenuated; renal effects (albuminuria, azotemia, renovascular hypertrophy, glomerular injury, PAI-1 and osteopontin mRNA, tubulointerstitial fibrosis) [2]: prevented; angiotensin II and salt-stimulated PAI-1 mRNA expression [2]: enhanced; aldosterone ([2]; at 4 and 8 weeks of treatment): increased |
| CC(C)S(=O)(=O)N1CC2(CC(Nc3cncc(N4C(=O)c5ccc(Cl)cc5C4(C)C)c3)C2)C1 [Example 38, 5-Chloro-3,3-dimethyl-2-[5-[(2-propan-2-ylsulfonyl-2-azaspiro[3.3]heptan-6-yl)amino]pyridin-3-yl]isoindol-1-one] | 11 | 8240 | – |
| CC1(C)c2cc(Cl)ccc2C(=O)N1c1cncc(NC2CCCN(S(C)(=O)=O)C2)c1 (single isomer, unassigned) [Example 23, 5-Chloro-3,3-dimethyl-2-[5-[[(3S or 3R)-1-methylsulfonylpiperidin-3-yl]amino]pyridin-3-yl]isoindol-1-one] | 1200 | 18200 | – |
| CCC(=O)N1CCC(Nc2cncc(N3C(=O)c4ccc(C#N)cc4C3(C)C)c2)CC1 [Example 44, 3,3-Dimethyl-1-oxo-2-[5-[(1-propanoyl-4-piperidyl)amino]-3-pyridyl]isoindoline-5-carbonitrile] | 22 | 6990 | – |
| CN(c1cncc(N2C(=O)c3ccc(Cl)cc3C2(C)C)c1)C1CN(S(C)(=O)=O)C1 [Example 11, 5-Chloro-3,3-dimethyl-2-[5-[methyl-(1-methylsulfonylazetidin-3-yl)amino]pyridin-3-yl]isoindol-1-one] | 3 | 50 | – |
| CCS(=O)(=O)N1CCCC(Nc2cncc(N3C(=O)c4ccc(Cl)cc4C3(C)C)c2)C1 (single isomer, unassigned) [Example 25, 5-Chloro-2-[5-[[(3S or 3R)-1-ethylsulfonylpiperidin-3-yl]amino]pyridin-3-yl]-3,3-dimethylisoindol-1-one] | 443 | 13900 | – |
